IC50 and EC50 data for 46 compounds are collected here from patent US8178530B2, “Imidazolopyrazine compounds useful for the treatment of degenerative and inflammatory diseases” (Janssen Pharmaceutica NV, priority 2006, dated 2012).

Assay [1] concerns the target T1, MAPKAPK5 (Homo sapiens, UniProt Q8IW41).
T1 construct: 1 mU MAPKAP-K5
T1 sequence (Q8IW41 1-473): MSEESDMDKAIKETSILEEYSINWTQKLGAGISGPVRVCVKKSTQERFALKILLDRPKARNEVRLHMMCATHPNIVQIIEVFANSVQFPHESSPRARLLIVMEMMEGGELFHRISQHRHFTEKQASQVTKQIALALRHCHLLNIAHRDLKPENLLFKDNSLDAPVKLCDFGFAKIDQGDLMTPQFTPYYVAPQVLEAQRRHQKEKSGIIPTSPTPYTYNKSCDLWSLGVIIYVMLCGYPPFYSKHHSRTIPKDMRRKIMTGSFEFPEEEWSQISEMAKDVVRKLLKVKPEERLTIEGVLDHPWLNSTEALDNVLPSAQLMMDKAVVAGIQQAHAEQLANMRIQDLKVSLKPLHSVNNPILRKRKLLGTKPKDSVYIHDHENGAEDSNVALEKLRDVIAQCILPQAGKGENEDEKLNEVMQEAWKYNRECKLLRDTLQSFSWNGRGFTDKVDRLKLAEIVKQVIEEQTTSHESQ
The assay can be described thus: MAPKAP-K5 assay (FlashPlate, 33P-ATP). It is filed as biochemical. The settings on record: 0.6 μM ATP, 30 minutes at room temperature. Here is the method:
3 μM MAPKAP-K5 peptide substrate

For assay [2], the system named is MMP1 expression by SFs. The assay can be described thus: 'MMP assay': MMP1 expression by 'complex trigger' activated synovial fibroblasts (MMP1 ELISA). It is filed as cell-based, human. To be noted: Homo sapiens, Fibroblast, RASFs, 48 hrs. For orientation: An ELISA detects its analyte on a solid surface through an enzyme-linked reagent.

Molecules are shown by their SMILES.

Usually IC50 stands for the point on the concentration scale where inhibition reaches its midpoint. The low end stands for greater potency in that assay, the high end for weaker potency in that assay. As a reminder, the EC50 is the midpoint of the concentration-response curve. Consider `O=C1NCc2oc(-c3cnc(Nc4ccc(N5CCOCC5)cc4)c4nccn34)cc21` [Compound 217, 2-[8-(4-Morpholin-4-yl-phenylamino)-imidazo[1,2-a]pyrazin5-yl]-5,6-dihydro-furo[2,3-c]pyrrol-4-one], for which, in assay [1], the IC50 was in the range of 101 to 500 nM. Besides, the EC50 in assay [2] was greater than 1000 nM.
In the same order, the values of `Nc1ccc(Nc2ncc(-c3cn[nH]c3)n3ccnc23)cn1` [Compound 207] are 501 to 1000 nM and greater than 1000 nM.
Turning to `CN1CCN(c2ccc(Nc3ncc(-c4ccc(C(=O)NC5CC5)cc4)n4ccnc34)cc2)CC1` [Compound 117], the IC50 in assay [1] was greater than 1000 nM. The EC50 in assay [2] is greater than 1000 nM.
Take `CN1CCN(c2ccc(Nc3ncc(-c4ccc(C(=O)N5CCCC5)cc4)n4ccnc34)cc2)CC1` [Compound 115]: the IC50 in assay [1] is greater than 1000 nM. Moreover, the concentration giving a half-maximal response (EC50) in assay [2] was greater than 1000 nM.
For the compound `CCOc1cc(-c2cnc(Nc3ccc(N4CCOCC4)cc3)c3nccn23)ccn1` [Compound 107], the IC50 in assay [1] is greater than 1000 nM. Further, the concentration giving a half-maximal response (EC50) in assay [2] is greater than 1000 nM.
In turn, `Cn1nnc(-c2ccc(Nc3ncc(-c4ccc(C(N)=O)cc4)n4ccnc34)cc2)n1` [Compound 170] registered an IC50 in assay [1] greater than 1000 nM. Further, the EC50 in assay [2] fell in the range of 101 to 500 nM.
For `c1cn2c(-c3cn[nH]c3)cnc(Nc3ccc4[nH]ccc4c3)c2n1` [Compound 27], in that order: 501 to 1000 nM and greater than 1000 nM.
For `CCN(CC)CCNC(=O)c1ccc(Nc2ncc(-c3c(C)n[nH]c3C)n3ccnc23)cc1` [Compound 81], in that order: greater than 1000 nM and greater than 1000 nM.
For `CS(=O)(=O)Nc1ccc(Nc2ncc(-c3cn[nH]c3)n3ccnc23)cc1` [Compound 30], in that order: 501 to 1000 nM and greater than 1000 nM.
Regarding `CCN(CC)CCNC(=O)c1cccc(Nc2ncc(-c3cn[nH]c3)n3ccnc23)c1` [Compound 50], the IC50 in assay [1] was greater than 1000 nM. For the same compound, the half-maximal effective concentration (EC50) in assay [2] was greater than 1000 nM.
As for `c1cn2c(-c3ccc4[nH]ccc4c3)cnc(Nc3ccc(N4CCOCC4)cc3)c2n1` [Compound 21], in assay [1], the IC50 was greater than 1000 nM. Also, in assay [2], the EC50 was greater than 1000 nM.
In assay [1], `CCN(CC)CCNC(=O)c1ccc(Nc2ncc(-c3nc[nH]n3)n3ccnc23)cc1` [Compound 105] came in with an IC50 greater than 1000 nM. Moreover, the EC50 in assay [2] is greater than 1000 nM.
In assay [1], `CCN(CC)CCNC(=O)c1ccc(Nc2ncc(-c3cncc4ccccc34)n3ccnc23)cc1` [Compound 77] showed an IC50 greater than 1000 nM. The EC50 in assay [2] was greater than 1000 nM.
As for `CCN(CC)CCNC(=O)c1ccc(Nc2ncc(C#N)n3ccnc23)cc1` [Compound 101], the IC50 in assay [1] was greater than 1000 nM. The EC50 in assay [2] is greater than 1000 nM.
`COc1cc(Nc2ncc(-c3csc(C(N)=O)c3)n3ccnc23)ccc1C(=O)NCc1ccc(C)nc1` [Compound 190, 4-(8-{3-Methoxy-4-[(6-methylpyridin-3-ylmethyl)carbamoyl]phenylamino}imidazo[1,2-a]pyrazin-5-yl)thiophene-2-carboxylic acid amide] had an IC50 in assay [1] greater than 1000 nM. The EC50 in assay [2] fell in the range of 101 to 500 nM.
Regarding `NC(=O)c1cc(-c2cnc(Nc3ccc(C4CCN(CC(F)(F)F)CC4)cc3)c3nccn23)cs1` [Compound 194], the IC50 in assay [1] was greater than 1000 nM. Further, the half-maximal effective concentration (EC50) in assay [2] fell in the range of 501 to 1000 nM.
For `CCN(CC)CCNC(=O)c1ccc(Nc2ncc(-c3ccc(C(N)=O)cc3)n3ccnc23)cc1` [Compound 46], in that order: greater than 1000 nM and greater than 1000 nM.
Regarding `CC(C)(C)OC(=O)c1ccc(Nc2ncc(-c3cn[nH]c3)n3ccnc23)cc1` [Compound 22], in assay [1], the IC50 is greater than 1000 nM. For the same compound, the EC50 in assay [2] was greater than 1000 nM.
As for `CN1CCN(c2ccc(Nc3ncc(-c4ccnc(N)c4)n4ccnc34)cc2)CC1` [Compound 132, [5-(2-Amino-pyridin-4-yl)-imidazo[1,2-a]pyrazin-8-yl]-[4-(4-methyl-piperazin-1-yl)-phenyl]-amine], the 50% inhibitory concentration (IC50) in assay [1] is greater than 1000 nM. The EC50 in assay [2] is greater than 1000 nM.
In assay [1], `O=C(NCCc1c[nH]c2ccccc12)c1ccc(Nc2ncc(-c3cn[nH]c3)n3ccnc23)cc1` [Compound 94] registered an IC50 of 501 to 1000 nM. Also, the EC50 in assay [2] is greater than 1000 nM.
On to `FC(F)(F)CN1CCC(c2ccc(Nc3ncc(-c4cn[nH]c4)n4ccnc34)cc2)CC1` [Compound 196], for which the IC50 in assay [1] was greater than 1000 nM. Further, the EC50 in assay [2] was greater than 1000 nM.
Regarding `O=C(NCc1ccc(O)cc1)c1ccc(Nc2ncc(-c3cc[nH]c(=O)c3)n3ccnc23)cc1` [Compound 112], the IC50 in assay [1] fell in the range of 101 to 500 nM. In assay [2], the concentration giving a half-maximal response (EC50) fell in the range of 101 to 500 nM.
Compound `O=C(O)c1cccc(Nc2ncc(-c3cn[nH]c3)n3ccnc23)c1` [Compound 51] displayed an IC50 in assay [1] greater than 1000 nM. In assay [2], the EC50 is greater than 1000 nM.
In turn, `NC(=O)c1ccc(Nc2ncc(-c3cn[nH]c3)n3cc(Br)nc23)cc1` [Compound 37] returned an IC50 in assay [1] greater than 1000 nM. The EC50 in assay [2] was greater than 1000 nM.
In assay [1], `O=C(Cc1ccccc1)Nc1ccc(Nc2ncc(-c3cn[nH]c3)n3ccnc23)cn1` [Compound 200, 2-Phenyl-N-{5-[5-(1H-pyrazol-4-yl)imidazo[1,2-a]pyrazin-8-ylamino]pyridin-2-yl}acetamide] came in with an IC50 greater than 1000 nM. In addition, the EC50 in assay [2] lay within 101 to 500 nM.
For `Cc1cn2c(-c3cn[nH]c3)cnc(Nc3ccc(C(N)=O)cc3)c2n1` [Compound 92], in that order: greater than 1000 nM and greater than 1000 nM.
`NC(=O)c1ccc(-c2cnc(Nc3ccc(C(=O)NCc4cccnc4)cc3)c3nccn23)cc1` [Compound 104] gave an IC50 in assay [1] greater than 1000 nM. The EC50 in assay [2] is greater than 1000 nM.
`NC(=O)c1ccc(-c2cnc(Nc3ccc(C(=O)NCCO)cc3)c3nccn23)cc1` [Compound 49] registered an IC50 in assay [1] greater than 1000 nM. The EC50 in assay [2] was greater than 1000 nM.
`NC(=O)c1ccc(Nc2ncc(-c3ccc(C(=O)O)cc3)n3ccnc23)cc1` [Compound 52] registered an IC50 in assay [1] greater than 1000 nM. Moreover, the EC50 in assay [2] was greater than 1000 nM.
Compound `CCN(CCO)c1ccc(Nc2ncc(-c3cccc(C(N)=O)c3)n3ccnc23)cc1` [Compound 2] came in with an IC50 in assay [1] greater than 1000 nM. The EC50 in assay [2] was greater than 1000 nM.
`O[C@H]1CC[C@H](Nc2ncc(-c3cn[nH]c3)n3ccnc23)CC1` [Compound 25] gave a half-maximal inhibitory concentration (IC50) in assay [1] greater than 1000 nM. Besides, the EC50 in assay [2] was greater than 1000 nM.
The compound `O=C1NCc2cc(-c3cnc(Nc4ccc(N5CCOCC5)nc4)c4nccn34)ccc21` [Compound 214] returned a concentration for half-maximal inhibition (IC50) in assay [1] of 1 to 100 nM. Also, in assay [2], the concentration for a half-maximal effect (EC50) was greater than 1000 nM.
With `CC(C)N1CCC(c2ccc(Nc3ncc(-c4ccc5c(c4)CNC5=O)n4ccnc34)cc2)CC1` [Compound 206, 5-{8-[4-(1-Isopropylpiperidin-4-yl)phenylamino]-imidazo[1,2-a]pyrazin-5-yl}-2,3-dihydroisoindol-1-one], in assay [1], the IC50 lay in the range of 1 to 100 nM. The EC50 in assay [2] was greater than 1000 nM.
For `NC(=O)CN1CCC(c2ccc(Nc3ncc(-c4cn[nH]c4)n4ccnc34)cc2)CC1` [Compound 224, 2-(4-{4-[5-(1H-Pyrazol-4-yl)imidazo[1,2-a]pyrazin-8-ylamino]phenyl}piperidin-1-yl)acetamide], in that order: 501 to 1000 nM and greater than 1000 nM.
For `CCN(CC)CCNC(=O)c1ccc(Nc2ncc(-c3ccnn3C)n3ccnc23)cc1` [Compound 88], in that order: greater than 1000 nM and greater than 1000 nM.
In the case of `COc1cc(Nc2ncc(-c3csc(C(N)=O)c3)n3ccnc23)ccc1C(=O)NCc1ccccc1` [Compound 191], the IC50 in assay [1] is greater than 1000 nM. The EC50 in assay [2] is greater than 1000 nM.
In assay [1], `CCN(CCO)c1ccc(Nc2ncc(-c3ccc(O)cc3)n3ccnc23)cc1` [Compound 5] came in with an IC50 greater than 1000 nM. In assay [2], the EC50 lay within 101 to 500 nM.
For `NC(=O)c1cnc(Nc2ccc(N3CCOCC3)cc2)c2nccn12` [Compound 66], in that order: greater than 1000 nM and greater than 1000 nM.
For `CCN(CC)CCNC(=O)c1ccc(Nc2ncc(-c3cn[nH]c3)n3ccnc23)c(C)c1` [Compound 58], in that order: greater than 1000 nM and greater than 1000 nM.
As for `CCN(CCO)c1ccc(Nc2ncc(-c3cccc(N)c3)n3ccnc23)cc1` [Compound 7], in assay [1], the IC50 is greater than 1000 nM. Also, in assay [2], the EC50 was greater than 1000 nM.
Consider `CCN(CC)CCNC(=O)c1ccc(Nc2ncc(-c3nn[nH]n3)n3ccnc23)cc1` [Compound 68], for which, in assay [1], the IC50 is greater than 1000 nM. In assay [2], the EC50 was greater than 1000 nM.
Consider `Cc1cnc2c(Nc3ccc(N4CCOCC4)cc3)ncc(-c3ccc(C(N)=O)cc3)n12` [Compound 130, 4-[3-Methyl-8-(4-morpholin-4-ylphenylamino)imidazo[1,2-a]pyrazin-5-yl]benzamide], for which, in assay [1], the IC50 is greater than 1000 nM. Also, in assay [2], the EC50 was greater than 1000 nM.
Compound `O=C(O)c1ccc(-c2cnc(Nc3ccc(C(=O)NCCN4CCOCC4)cc3)c3nccn23)cc1` [Compound 54] registered an IC50 in assay [1] greater than 1000 nM. Moreover, the EC50 in assay [2] was greater than 1000 nM.
Compound `N#Cc1[nH]ncc1-c1cnc(Nc2ccc(N3CCOCC3)cc2)c2nccn12` [Compound 212, 4-[8-(4-Morpholin-4-yl-phenylamino)-imidazo[1,2-a]pyrazin-5-yl]-2H-pyrazole-3-carbonitrile] displayed an IC50 in assay [1] of 101 to 500 nM. Moreover, the concentration for a half-maximal effect (EC50) in assay [2] lay within 101 to 500 nM.
With `c1cn2c(-c3cn[nH]n3)cnc(Nc3ccc(N4CCOCC4)cc3)c2n1` [Compound 67], the IC50 in assay [1] is greater than 1000 nM. The EC50 in assay [2] is greater than 1000 nM.
In the case of `CCN(CC)CCNC(=O)c1ccc(Nc2ncc(-c3n[nH]c(C)n3)n3ccnc23)cc1` [Compound 106], the IC50 in assay [1] was greater than 1000 nM. In addition, the EC50 in assay [2] was greater than 1000 nM.
